Measured values reported in ChEMBL document CHEMBL1130852, “In vitro evaluation and crystallographic analysis of a new class of selective, non-amide-based thrombin inhibitors” (Bioorg Med Chem Lett, 1998).
Several values for one entry are separate records, joined by “and”; a condition that tells them apart may be missing. Identical values can stand only once. Blank lines part the entries; values can stand above or below the molecule they belong to.

How the values were obtained:
[1] = Compound was tested in vitro for its ability to inhibit serine protease elastase using suc-Ala-Ala-Pro-Val-p-nitroanilide as substrate
[2] = biological target: Coagulation factor X (Homo sapiens, UniProt P00742); experiment: Compound was tested in vitro for its ability to inhibit serine protease factor Xa using benzoyl-Ile-Glu-Gly-Arg-p-nitroanilide as substrate
[3] = biological target: Plasminogen (Homo sapiens, UniProt P00747); experiment: Compound was tested in vitro for its ability to inhibit serine protease plasmin using tosyl-Gly-Pro-Lys-p-nitroanilide as substrate
[4] = biological target: Urokinase-type plasminogen activator (Homo sapiens, UniProt P00749); experiment: (§1) Compound was tested in vitro for its ability to inhibit serine protease urokinase using carbobenzyloxy-Phe-Val-Arg-p-nitroanilide as substrate
[5] = biological target: Prothrombin (Homo sapiens, UniProt P00734); experiment: Compound was tested in vitro for its ability to inhibit serine protease thrombin using […] as substrate
[6] = test system: CC(C)[C@H](NC(=O)[C@H](Cc1ccccc1)NC(=O)OCc1ccccc1)C(=O)N[C@@H](CCCN=C(N)N)C(=O)Nc1ccc([N+](=O)[O-])cc1; experiment: as §1
[7] = compound: CC(C)[C@H](NC(=O)[C@H](Cc1ccccc1)NC(=O)c1ccccc1)C(=O)N[C@@H](CCCN=C(N)N)C(=O)Nc1ccc([N+](=O)[O-])cc1; experiment: Compound was tested in vitro for its ability to inhibit serine protease trypsin using benzoyl-Phe-Val-Arg-p-nitroanilide as substrate; conditions: Bos taurus
[8] = compound: C[C@H](NC(=O)CCC(=O)O)C(=O)N[C@@H](C)C(=O)N1CCC[C@H]1C(=O)N[C@@H](Cc1ccccc1)C(=O)Nc1ccc([N+](=O)[O-])cc1; experiment: Compound was tested in vitro for its ability to inhibit serine protease Chymotrypsinogen using suc-Ala-Ala-Pro-Phe-p-nitroanilide as substrate

Chain of Coagulation factor X (P00742 41-179 limits assumed): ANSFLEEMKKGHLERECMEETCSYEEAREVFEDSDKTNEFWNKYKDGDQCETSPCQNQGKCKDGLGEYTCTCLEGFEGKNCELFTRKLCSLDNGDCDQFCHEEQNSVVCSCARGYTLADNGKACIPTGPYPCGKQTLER
Chain of Coagulation factor X (P00742 235-488 limits assumed): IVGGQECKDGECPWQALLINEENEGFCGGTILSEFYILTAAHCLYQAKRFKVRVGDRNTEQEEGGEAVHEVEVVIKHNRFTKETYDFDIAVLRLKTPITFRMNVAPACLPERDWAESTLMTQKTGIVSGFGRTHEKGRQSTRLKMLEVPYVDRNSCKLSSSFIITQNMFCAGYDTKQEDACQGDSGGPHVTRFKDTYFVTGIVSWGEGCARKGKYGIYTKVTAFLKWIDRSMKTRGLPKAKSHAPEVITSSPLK
Chain of Plasminogen (P00747 97-580 limits assumed): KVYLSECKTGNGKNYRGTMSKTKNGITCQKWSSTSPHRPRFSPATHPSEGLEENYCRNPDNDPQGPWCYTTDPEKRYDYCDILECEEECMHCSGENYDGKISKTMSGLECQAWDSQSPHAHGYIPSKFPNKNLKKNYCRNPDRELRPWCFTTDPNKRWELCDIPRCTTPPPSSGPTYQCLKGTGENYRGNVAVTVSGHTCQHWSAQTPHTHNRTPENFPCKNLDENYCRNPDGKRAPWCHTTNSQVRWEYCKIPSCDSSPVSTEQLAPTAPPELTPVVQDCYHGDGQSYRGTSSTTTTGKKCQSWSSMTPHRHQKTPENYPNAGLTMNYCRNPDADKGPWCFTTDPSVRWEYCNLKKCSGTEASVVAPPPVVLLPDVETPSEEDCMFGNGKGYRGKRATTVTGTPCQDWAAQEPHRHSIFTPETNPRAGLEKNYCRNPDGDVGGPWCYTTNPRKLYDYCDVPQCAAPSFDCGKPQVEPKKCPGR
Chain of Plasminogen (P00747 581-810 limits assumed): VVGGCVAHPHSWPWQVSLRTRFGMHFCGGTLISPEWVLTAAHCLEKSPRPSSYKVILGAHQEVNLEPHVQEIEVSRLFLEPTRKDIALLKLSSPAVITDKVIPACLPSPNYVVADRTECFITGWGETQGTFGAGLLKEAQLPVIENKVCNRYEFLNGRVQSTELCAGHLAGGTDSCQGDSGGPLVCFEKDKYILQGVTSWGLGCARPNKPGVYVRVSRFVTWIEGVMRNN

Ki [1]: > 200 µM
Ki [2]: > 200 µM
Ki [3]: > 200 µM
Ki [4]: > 200 µM
Ki [5]: 0.033 µM
Molecule: Cc1cc(OCCCN=C(N)N)cc(OS(=O)(=O)c2ccccc2Cl)c1

Molecule: Urokinase-type plasminogen activator (Homo sapiens) (from UniProt P00749)
Km [6]: 190 µM and 170 µM

Ki [1]: > 200 µM
Ki [2]: 120 µM
Ki [3]: > 200 µM
Ki [4]: > 200 µM
Ki [5]: 0.26 µM
Molecule: Cc1cc(OCCCCCN=C(N)N)cc(OS(=O)(=O)c2ccccc2Cl)c1

Ki [1]: > 200 µM
Ki [2]: 110 µM
Ki [3]: > 200 µM
Ki [4]: > 200 µM
Molecule: Cc1cc(OCCCCN=C(N)N)cc(OS(=O)(=O)c2ccccc2Cl)c1

Ki [1]: > 200 µM
Ki [2]: 160 µM
Ki [3]: > 200 µM
Ki [4]: > 200 µM
Molecule: Cc1cc(OCCN(C)c2ccncc2)cc(OS(=O)(=O)c2ccccc2Cl)c1

Ki [1]: > 200 µM
Ki [2]: 80 µM
Ki [3]: > 200 µM
Ki [4]: > 200 µM
Ki [5]: 0.0046 µM
Molecule: Cc1cc(OCC2CCN(C(=N)N)CC2)cc(OS(=O)(=O)c2ccccc2Cl)c1

Ki [1]: > 200 µM
Ki [2]: 29 µM
Ki [3]: > 200 µM
Ki [4]: > 200 µM
Ki [5]: 0.32 µM
Molecule: Cc1cc(OCC2CCCN(C(=N)N)C2)cc(OS(=O)(=O)c2ccccc2Cl)c1 (stereo unspecified)

B1: Serine protease 1 (Bos taurus), P00760 (protein)
chain: MKTFIFLALLGAAVAFPVDDDDKIVGGYTCGANTVPYQVSLNSGYHFCGGSLINSQWVVSAAHCYKSGIQVRLGEDNINVVEGNEQFISASKSIVHPSYNSNTLNNDIMLIKLKSAASLNSRVASISLPTSCASAGTQCLISGWGNTKSSGTSYPDVLKCLKAPILSDSSCKSAYPGQITSNMFCAGYLEGGKDSCQGDSGGPVVCSGKLQGIVSWGSGCAQKNKPGVYTKVCNYVSWIKQTIASN
Km [7]: 160 µM and 100 µM

B2: Chymotrypsin-C (Homo sapiens), Q99895 (protein)
chain: MLGITVLAALLACASSCGVPSFPPNLSARVVGGEDARPHSWPWQISLQYLKNDTWRHTCGGTLIASNFVLTAAHCISNTRTYRVAVGKNNLEVEDEEGSLFVGVDTIHVHKRWNALLLRNDIALIKLAEHVELSDTIQVACLPEKDSLLPKDYPCYVTGWGRLWTNGPIADKLQQGLQPVVDHATCSRIDWWGFRVKKTMVCAGGDGVISACNGDSGGPLNCQLENGSWEVFGIVSFGSRRGCNTRKKPVVYTRVSAYIDWINEKMQL
Km [8]: 60 µM and 100 µM
